Holding throughout (type): functional
The subject of assay [1] is Staphylococcus aureus. Briefly: Antimicrobial activity against Staphylococcus aureus Smith by micro broth dilution or agar based method.
For assay [2], the system named is Staphylococcus aureus. The assay can be described thus: Antimicrobial activity against methicillin-resistant Staphylococcus aureus OIT971 by micro broth dilution or agar based method.
For a further assay, the system named is Streptococcus pneumoniae. The assay can be described thus: Antimicrobial activity against Streptococcus pneumoniae IID553 by micro broth dilution or agar based method.
The subject of another assay is Enterococcus faecium. Briefly: Antimicrobial activity against VanA expressing vancomycin-resistant Enterococcus faecium by micro broth dilution or agar based method.
The test system of another assay is Escherichia coli. Briefly: Antimicrobial activity against Escherichia coli ATCC 25922 by micro broth dilution or agar based method.
In a further assay the test system is Acinetobacter baumannii. Briefly: Antimicrobial activity against Acinetobacter baumannii IID876 by micro broth dilution or agar based method.
The subject of another assay is Pseudomonas aeruginosa. The assay can be described thus: Antimicrobial activity against Pseudomonas aeruginosa PAO1 by micro broth dilution or agar based method.
Where [3] appears, read: Staphylococcus aureus, Smith, read-out: MIC.
The mark [4] stands for this setting: Streptococcus pneumoniae, IID553, read-out: MIC.
Setting [5] is: Enterococcus faecium, read-out: MIC.
The mark [6] stands for this setting: Escherichia coli, ATCC 25922, read-out: MIC.
[7] abbreviates: Acinetobacter baumannii, IID876, read-out: MIC.
The mark [8] stands for this setting: Pseudomonas aeruginosa, PAO1, read-out: MIC.

The values below come from ChEMBL document CHEMBL3421558, “Structure activity relationship of substituted 1,5-naphthyridine analogs of oxabicyclooctane-linked novel bacterial topoisomerase inhibitors as broad-spectrum antibacterial agents (Part-4)” (Bioorg Med Chem Lett, 2015).

In brackets after ≈: the same amount, converted by molar mass.

As for `COc1cc(OC)c2nccc(CCC34CCC(NCc5ccc6c(n5)NC(=O)CO6)(CC3)CO4)c2n1`, the MIC is 0.5 µg/mL (≈ 0.989 µM) in the assay with Staphylococcus aureus [1] (setting [3]); 0.25 µg/mL (≈ 0.494 µM) with Staphylococcus aureus [2]; 8 µg/mL (≈ 15.8 µM) in the assay with Streptococcus pneumoniae (setting [4]); 8 µg/mL (≈ 15.8 µM) in the assay on Enterococcus faecium (setting [5]); 32 µg/mL (≈ 63.3 µM) with Escherichia coli (setting [6]); 8 µg/mL (≈ 15.8 µM) in the assay on Acinetobacter baumannii (setting [7]). Moreover, the MIC in the assay with Pseudomonas aeruginosa (setting [8]) was found to be 64 µg/mL (≈ 127 µM).

For the molecule `COc1cc(CCC23CCC(NCc4ccc5c(n4)NC(=O)CO5)(CC2)CO3)c2nc(OC)ccc2n1`, the MIC with Staphylococcus aureus [1] (setting [3]) stood at 4 µg/mL (≈ 7.91 µM); with Staphylococcus aureus [2], 1 µg/mL (≈ 1.98 µM); with Streptococcus pneumoniae (setting [4]) it was 8 µg/mL (≈ 15.8 µM); in the assay on Enterococcus faecium (setting [5]), 8 µg/mL (≈ 15.8 µM); in the assay with Escherichia coli (setting [6]), 8 µg/mL (≈ 15.8 µM); in the assay on Acinetobacter baumannii (setting [7]), 8 µg/mL (≈ 15.8 µM). Also, the MIC in the assay with Pseudomonas aeruginosa (setting [8]) turned out to be 8 µg/mL (≈ 15.8 µM).

Regarding `Cc1nc2c(CCC34CCC(NCc5ccc6c(n5)NC(=O)CO6)(CC3)CO4)ccnc2cc1C#N`, the MIC in the assay with Staphylococcus aureus [1] (setting [3]), in the assay on Staphylococcus aureus [2], in the assay with Streptococcus pneumoniae (setting [4]), in the assay on Enterococcus faecium (setting [5]), with Escherichia coli (setting [6]) and with Acinetobacter baumannii (setting [7]) was 16 µg/mL (≈ 33 µM) in each case. For the same molecule, the MIC in the assay on Pseudomonas aeruginosa (setting [8]) was 16 µg/mL (≈ 33 µM).

Regarding `COc1cc2nccc(CCC34CCC(NCc5ccc6c(n5)NC(=O)CO6)(CC3)CO4)c2nc1C#N`, the MIC with Staphylococcus aureus [1] (setting [3]) came to 8 µg/mL (≈ 16 µM); in the assay with Staphylococcus aureus [2] it was 2 µg/mL (≈ 4 µM); in the assay with Streptococcus pneumoniae (setting [4]) it was 32 µg/mL (≈ 63.9 µM); with Enterococcus faecium (setting [5]) it was 32 µg/mL (≈ 63.9 µM); in the assay with Escherichia coli (setting [6]), 32 µg/mL (≈ 63.9 µM); with Acinetobacter baumannii (setting [7]), 32 µg/mL (≈ 63.9 µM). Besides, in the assay on Pseudomonas aeruginosa (setting [8]), the MIC was 32 µg/mL (≈ 63.9 µM).

For `COc1cc2nccc(CCC34CCC(NCc5ccc6c(n5)NC(=O)CO6)(CC3)CO4)c2nc1C(=O)O`, the MIC in the assay with Staphylococcus aureus [1] (setting [3]), with Staphylococcus aureus [2], in the assay on Streptococcus pneumoniae (setting [4]), in the assay with Enterococcus faecium (setting [5]), with Escherichia coli (setting [6]) and with Acinetobacter baumannii (setting [7]) was 16 µg/mL (≈ 30.8 µM) in each case. In the assay with Pseudomonas aeruginosa (setting [8]), the MIC is 16 µg/mL (≈ 30.8 µM).

Turning to `Cc1cc(C#N)nc2c(CCC34CCC(NCc5ccc6c(n5)NC(=O)CO6)(CC3)CO4)ccnc12`, the MIC with Staphylococcus aureus [1] (setting [3]) was 1 µg/mL (≈ 2.06 µM); in the assay on Staphylococcus aureus [2] it was 0.5 µg/mL (≈ 1.03 µM); with Streptococcus pneumoniae (setting [4]), 8 µg/mL (≈ 16.5 µM); with Enterococcus faecium (setting [5]), 8 µg/mL (≈ 16.5 µM); in the assay with Escherichia coli (setting [6]), 16 µg/mL (≈ 33 µM); in the assay with Acinetobacter baumannii (setting [7]) it was 4 µg/mL (≈ 8.25 µM). Further, the MIC in the assay on Pseudomonas aeruginosa (setting [8]) is 64 µg/mL (≈ 132 µM).

On to `CN(C)c1nc2c(CCC34CCC(NCc5ccc6c(n5)NC(=O)CO6)(CC3)CO4)ccnc2cc1C(F)(F)F`, for which the MIC in the assay on Staphylococcus aureus [1] (setting [3]), with Staphylococcus aureus [2], in the assay on Streptococcus pneumoniae (setting [4]), with Enterococcus faecium (setting [5]), with Escherichia coli (setting [6]) and in the assay with Acinetobacter baumannii (setting [7]) was 8 µg/mL (≈ 14.4 µM) each time. For the same molecule, the MIC in the assay on Pseudomonas aeruginosa (setting [8]) was 8 µg/mL (≈ 14.4 µM).

Turning to `CN(C)c1nc2c(CCC34CCC(NCc5ccc6c(n5)NC(=O)CO6)(CC3)CO4)ccnc2cc1F`, the MIC was determined as 1 µg/mL (≈ 1.97 µM) with Staphylococcus aureus [1] (setting [3]); 1 µg/mL (≈ 1.97 µM) in the assay on Staphylococcus aureus [2]; 16 µg/mL (≈ 31.6 µM) in the assay with Streptococcus pneumoniae (setting [4]); 16 µg/mL (≈ 31.6 µM) with Enterococcus faecium (setting [5]); 16 µg/mL (≈ 31.6 µM) with Escherichia coli (setting [6]); 16 µg/mL (≈ 31.6 µM) in the assay with Acinetobacter baumannii (setting [7]). In addition, the MIC in the assay with Pseudomonas aeruginosa (setting [8]) was determined as 16 µg/mL (≈ 31.6 µM).

As for `O=C1COc2ccc(CNC34CCC(CCc5ccnc6ccc(C(F)(F)F)nc56)(CC3)OC4)nc2N1`, the MIC in the assay with Staphylococcus aureus [1] (setting [3]) was 2 µg/mL (≈ 3.89 µM); against Staphylococcus aureus [2] it was 1 µg/mL (≈ 1.95 µM); with Streptococcus pneumoniae (setting [4]) it was 32 µg/mL (≈ 62.3 µM); in the assay on Enterococcus faecium (setting [5]), 16 µg/mL (≈ 31.2 µM); in the assay with Escherichia coli (setting [6]), 32 µg/mL (≈ 62.3 µM); in the assay on Acinetobacter baumannii (setting [7]), 8 µg/mL (≈ 15.6 µM). In addition, the MIC in the assay on Pseudomonas aeruginosa (setting [8]) stood at 64 µg/mL (≈ 125 µM).

`O=C1COc2ccc(CNC34CCC(CCc5ccnc6cc(C(F)(F)F)cnc56)(CC3)OC4)nc2N1`: the MIC with Staphylococcus aureus [1] (setting [3]), in the assay with Staphylococcus aureus [2], in the assay with Streptococcus pneumoniae (setting [4]), with Enterococcus faecium (setting [5]), in the assay on Escherichia coli (setting [6]) and with Acinetobacter baumannii (setting [7]) was 64 µg/mL (≈ 125 µM) in each case. Also, the MIC with Pseudomonas aeruginosa (setting [8]) stood at 64 µg/mL (≈ 125 µM).

`COc1cnc2c(CCC34CCC(NCc5ccc6c(n5)NC(=O)CO6)(CC3)CO4)ccnc2c1`: the MIC turned out to be 32 µg/mL (≈ 67.3 µM) in the assay on Staphylococcus aureus [1] (setting [3]); 8 µg/mL (≈ 16.8 µM) against Staphylococcus aureus [2]; 64 µg/mL (≈ 135 µM) with Streptococcus pneumoniae (setting [4]); 64 µg/mL (≈ 135 µM) in the assay on Enterococcus faecium (setting [5]); 64 µg/mL (≈ 135 µM) with Escherichia coli (setting [6]); 64 µg/mL (≈ 135 µM) with Acinetobacter baumannii (setting [7]). In addition, the MIC in the assay with Pseudomonas aeruginosa (setting [8]) was 64 µg/mL (≈ 135 µM).

For the molecule `O=C1COc2ccc(CNC34CCC(CCc5ccnc6cc(Cl)cnc56)(CC3)OC4)nc2N1`, the MIC in the assay with Staphylococcus aureus [1] (setting [3]) came out at 64 µg/mL (≈ 133 µM); against Staphylococcus aureus [2], 16 µg/mL (≈ 33.3 µM); in the assay with Streptococcus pneumoniae (setting [4]), 64 µg/mL (≈ 133 µM); in the assay with Enterococcus faecium (setting [5]), 64 µg/mL (≈ 133 µM); with Escherichia coli (setting [6]) it was 64 µg/mL (≈ 133 µM); in the assay with Acinetobacter baumannii (setting [7]), 64 µg/mL (≈ 133 µM). Besides, the MIC in the assay with Pseudomonas aeruginosa (setting [8]) came out at 64 µg/mL (≈ 133 µM).

`O=C1COc2ccc(CNC34CCC(CCc5ccnc6cc(F)cnc56)(CC3)OC4)nc2N1`: the MIC with Staphylococcus aureus [1] (setting [3]) is 16 µg/mL (≈ 34.5 µM); with Staphylococcus aureus [2] it was 8 µg/mL (≈ 17.3 µM); in the assay with Streptococcus pneumoniae (setting [4]), 32 µg/mL (≈ 69 µM); in the assay on Enterococcus faecium (setting [5]), 32 µg/mL (≈ 69 µM); with Escherichia coli (setting [6]) it was 32 µg/mL (≈ 69 µM); in the assay on Acinetobacter baumannii (setting [7]), 16 µg/mL (≈ 34.5 µM). Further, the MIC with Pseudomonas aeruginosa (setting [8]) stood at 32 µg/mL (≈ 69 µM).

With `COc1ccc2ncc(C#N)c(CC(O)C34CCC(NCc5ccc6c(n5)NC(=O)CO6)(CC3)CO4)c2n1` (single isomer, unassigned; (-)), the MIC against Staphylococcus aureus [1] turned out to be 0.063 µg/mL (≈ 0.122 µM); in the assay on Streptococcus pneumoniae it was 0.25 µg/mL (≈ 0.484 µM); against Enterococcus faecium, 2 µg/mL (≈ 3.87 µM); in the assay with Escherichia coli it was 4 µg/mL (≈ 7.74 µM); against Acinetobacter baumannii it was 1 µg/mL (≈ 1.94 µM); against Pseudomonas aeruginosa it was 16 µg/mL (≈ 31 µM).
